For orientation: IC50 means the midpoint of a concentration-inhibition curve. A low value points to higher potency. The term logD denotes lipophilicity at a set pH, counting ionised and neutral species. Read a high logD as a more lipophilic compound.

The values that follow come from patent US8598168B2 (MethylGene Inc., priority 2006, dated 2013).

Bounds are passed on as bounds.

For data set [1], the system named is p21 promoter-driven luciferase in HCT116 cells. Description: p21WAF1/Cip1 Assay (p21 promoter-driven luciferase reporter). Type of data set: cell-based, human. The note with it: 16 hours treatment, value designated as reference. On the procedure:
HCT116 cells were stably transfected with reporter plasmids encoding the p21 promoter-driven luciferase. Cells were treated with indicated concentration of HDAC inhibitors for 16 hours before cells were harvested and luciferase activity analyzed. The effective concentration (EC) of MS-275 was designated as 1 μM. The ability of HDAC inhibitor was compared with that of MS-275 (T. Suzuki, et. al J. Med. Chem., 1999, 3001-3003).
In general terms: In a reporter assay the amount or activity of a reporter protein is the signal.

The target in data set [2] is HDAC-1 (Homo sapiens, UniProt Q13547). Description: Inhibition of Histone Deacetylase Enzymatic (HDAC-1) Activity. The data set is classed as biochemical. The note with it: Table 21. As for the experimental part: The following protocol was used to assay the compounds of the invention.
The mixture was pre-incubated for 5 minutes at room temperature. The reaction was started by bringing the temperature to 37° C. and adding 15 μl substrate. Total reaction volume was 50 μl.

In data set [3] the test system is human colon cancer HCT116 cells. Description: MTT Assay. The note with it: HCT-116, 72 hours, Table 21. The data set is classed as cell-based. On the procedure: Compounds at various concentrations were added to human colon cancer HCT116 cells plated in 96-well plates. Cells were incubated for 72 hours at 37° C. in 5% CO2 incubator. MTT (3-[4,5-dimethylthiazol-2-yl]-2,5 diphenyl tetrazolium bromide, Sigma) was added at a final concentration of 0.5 mg/ml and incubated with the cells for 4 hours before an equal volume of solubilization buffer (50% N,N-dimethylformamide, 20% SDS, pH 4.7) was added onto cultured cells. After overnight incubation, solubilized dye was quantified by colorimetric reading at […] using a reference at 630 nM. OD values were converted to cell numbers according to a standard growth curve of the relevant cell line. The concentration which reduces cell numbers to 50% of those of DMSO-treated cells is determined as MTT IC50.

Data set [4] is described as follows: Log D (comparison with previously disclosed compounds). The data set is classed as physicochemical. The note with it: pH 7.4.

Chain of HDAC-1 (Q13547 whole entry): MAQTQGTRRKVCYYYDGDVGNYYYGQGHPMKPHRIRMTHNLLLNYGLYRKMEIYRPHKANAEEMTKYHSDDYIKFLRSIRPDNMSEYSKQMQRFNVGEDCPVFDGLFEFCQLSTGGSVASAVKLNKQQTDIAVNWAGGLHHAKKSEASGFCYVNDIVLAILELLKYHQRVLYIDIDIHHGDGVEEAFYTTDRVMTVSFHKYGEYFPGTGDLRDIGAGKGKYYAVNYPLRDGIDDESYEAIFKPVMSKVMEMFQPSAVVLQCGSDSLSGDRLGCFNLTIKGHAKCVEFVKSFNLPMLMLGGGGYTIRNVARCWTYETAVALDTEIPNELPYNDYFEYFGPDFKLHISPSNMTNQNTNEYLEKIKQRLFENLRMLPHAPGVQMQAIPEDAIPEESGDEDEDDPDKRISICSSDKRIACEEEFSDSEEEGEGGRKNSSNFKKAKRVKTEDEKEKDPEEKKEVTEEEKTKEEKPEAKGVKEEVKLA

On to `Nc1ccccc1NC(=O)c1ccc(CNC(=O)OCc2cccnc2)cc1` [MS-275], for which the “effective concentration (EC) to induce p21 expression” value in data set [1] is 1 µM.
For the compound `CC(C)N1CCN(c2ccc(C(=O)Nc3cc(-c4cccs4)ccc3N)cc2)CC1` [compound 102, N-(2-amino-5-(thiophen-2-yl)phenyl)-4-(4-isopropyl-piperazin-1-yl)benzamide], the IC50 in data set [2] and in data set [3] was below 1000 nM in each case. Besides, the logD in data set [4] amounted to 1.52.
As for `Nc1ccc(-c2cccs2)cc1NC(=O)c1ccc(N2CCN(C3CCCC3)CC2)cc1` [compound 103, N-(2-amino-5-(thiophen-2-yl)phenyl)-4-(4-cyclopentyl-piperazin-1-yl)-benzamide], the IC50 in data set [2] and in data set [3] was below 1000 nM each time. Further, the logD in data set [4] worked out at 2.68.
As to `Nc1ccc(-c2cccs2)cc1NC(=O)c1ccc(N2CCC(N3CCOCC3)CC2)cc1` [compound 104, N-(2-amino-5-(thiophen-2-yl)phenyl)-4-(4-morpholino-piperidin-1-yl)benzamide], the IC50 in data set [2] and in data set [3] was below 1000 nM throughout. The same compound came in with a logD in data set [4] of 2.51.
Regarding `Nc1ccc(-c2cccs2)cc1NC(=O)c1ccc(N2CCC(N3CCCC3)CC2)cc1` [compound 105, N-(2-amino-5-(thiophen-2-yl)phenyl)-4-(4-(pyrrolidin-1-yl)piperidin-1-yl)benzamide], the IC50 in data set [2] and in data set [3] was below 1000 nM in each case. This compound also returned a logD in data set [4] of 1.6.
Regarding `CN(C)CCSc1ccc(C(=O)Nc2cc(-c3cccs3)ccc2N)cc1` [compound 106, N-(2-amino-5-(thiophen-2-yl)phenyl)-4-(2-(dimethyl-amino)ethylthio)-benzamide], the IC50 in data set [2] was below 1000 nM; in data set [3] it was 1000 to 5000 nM. The compound further gave a logD in data set [4] of 2.85.
For the compound `COCCN1CCN(c2ccc(C(=O)Nc3cc(-c4cccs4)ccc3N)cc2)CC1` [compound 108, N-(2-amino-5-(thiophen-2-yl)phenyl)-4-(4-(2-methoxyethyl)-piperazin-1-yl)benzamide], the IC50 in data set [2] and in data set [3] was below 1000 nM throughout. The same compound yielded a logD in data set [4] of 1.78.
As to `CN(C)CCOC(=O)NCc1ccc(C(=O)Nc2cc(-c3cccs3)ccc2N)cc1` [compound 221, 2-(Dimethylamino)ethyl 4-(2-amino-5-(thiophen-2-yl)phenylcarbamoyl)benzylcarbamate], the half-maximal inhibitory concentration (IC50) in data set [2] and in data set [3] was below 1000 nM in each case. This compound yielded a logD in data set [4] of 1.85.
In the case of `CN(C)CCN(C)C(=O)NCc1ccc(C(=O)Nc2cc(-c3cccs3)ccc2N)cc1` [compound 222, N-(2-amino-5-(thiophen-2-yl)phenyl)-4-((3-(2-(dimethylamino)ethyl)-3-methylureido)methyl)benzamide], the IC50 in data set [2] and in data set [3] was below 1000 nM in each case. In data set [4], this compound displayed a logD of 1.05.
Regarding `CN(C)[C@H]1CC(=O)N(Cc2ccc(C(=O)Nc3cc(-c4cccs4)ccc3N)cc2)C1=O` [compound 242, (S)—N-(2-Amino-5-(thiophen-2-yl)phenyl)-4-((3-(dimethylamino)-2,5-dioxopyrrolidin-1-yl)methyl)benzamide], the IC50 is below 1000 nM in data set [2] and 1000 to 5000 nM in data set [3]. For the same compound, the log distribution coefficient (logD) in data set [4] came out at 1.81.
In the case of `Nc1ccc(-c2cccs2)cc1NC(=O)c1ccc(CN2CC[C@H](Nc3cccnc3)C2)cc1` [compound 249, (S)—N-(2-Amino-5-(thiophen-2-yl)phenyl)-4-((3-(pyridin-3-ylamino)pyrrolidin-1-yl)methyl)benzamide], the IC50 in data set [2] and in data set [3] was below 1000 nM throughout. The logD in data set [4] was 3.27.
